The MIC is the lowest concentration found to suppress growth. The low end stands for inhibition by little substance, the high end for a need for much substance.

In brackets after ≈: the same amount, converted by molar mass. Bounds are passed on as bounds.

Data on four compounds can be found in US20140142343A1, “Novel Fragrance Compounds” (Givaudan Nederland Services B.V., priority 2006, published 2014).

Test [1] concerns Mosquito (Aedes aegyptii). In words: Insect repellency against mosquitoes, treated arm in cage. The format is in vivo. How it is done:
(§1) Compound 1 was tested for insect repellency against mosquitoes and ants. In all cases, repellency is calculated with reference to an untreated surface having 0% repellency.
(§2) Ant (Lasius niger) 300 mm square vinyl tiles half treated with 0.9 ml test material and left for 2 hours. Glass arena 250 mm square, 75 mm high and fluon coated, open to air. Arena illuminated from 1.0 m above by four 18 W fluorescent lamps. 50 black ants per arena counted every 5 minutes. Arena turned 180 degrees every 10 minutes. Any ants injured or escaping replaced. Mosquito (Aedes aegyptii) A perspex box approx 18 inch cube, with sleeved circular entry was used as the test cage. The box contained 5 day old, mated honey fed females. The area of arm to be tested was measured. The test material was applied from ethanol solution at a rate of 0.2 mg test material per square centimetre. A similar area of the other arm was used for the control. A pair of disposable gloves was worn on the hands throughout the test. In turn each arm was inserted into the cage for 30 seconds. This was repeated 3 times. The number of mosquitoes landing on the arm was recorded every five seconds. As penetration of the skin occurs within 5 seconds the arm was flicked at this frequency to dislodge the flies.

The subject of a further test is Ant (Lasius niger). In words: Insect repellency against ants, half-treated vinyl tiles. The test is classed as in vivo. How it is done:
as §1
Ant test is completed with a simplified general purpose cleaner formulation: […]
This product is applied to the floor tiles (vinyl) at the rate of 20 g·m^−2.
as §2, with “As penetration of the skin occurs within 5 seconds the arm was flicked at this frequency to dislodge the flies.” left out

Test [2] deals with Staphylococcus aureus ATCC 6538. The test is described as follows: Minimum Inhibitory Concentration (MIC). The test is classed as cell-based. The conditions noted are these: for MIC: ATCC6538, Staphylococcus aureus ATCC 6538, change in absorbance <0.2 A540; for activity against Staphylococcus aureus (in words): summary statement. As to the method: One property that characterises the effectiveness of a compound or composition to inhibit the growth of bacteria, is the minimum inhibitory concentration, or MIC, of the compound or composition. The MIC is defined as the minimum amount of a compound or composition (e.g. in ppm) at which little or no bacterial growth is observed. […] The minimum inhibitory concentration of a compound was determined by the following method. A culture of the test strains of bacteria Staphylococcus aureus ATCC 6538 (American Type Culture Collection, P.O. Box 1549, Manassas, Va. 20108, USA) was incubated for 16-24 hours, in a shaken flask at 37° C. The cultures was then diluted in sterile 0.1% TSB (Oxoid, Basingstoke, UK) to give a concentration of bacteria of approximately 10^6 colony forming units (cfu) per ml. Fragrance compounds were prepared in sterile TSB to give stock solutions with final concentrations of 40,000 ppm. The absorbance at 540 nm (hereinafter referred to for brevity and simplicity as “A540”) was used as a measure of turbidity resulting from bacterial growth. The MIC was taken as the concentration of ingredient required to inhibit growth so that the average change in absorbance during the incubation period was <0.2 A540.

`CC(C)(C)C1CCCC(CCC=O)C1` (stereo not shown) [Compound 1, 3-(3-tert-butylcyclohexyl)propanal] showed a repellency against mosquitoes in test [1] (after 10 minutes, wrt untreated surface, 0.2 mg test material per square centimetre) of 100%. Further, the “repellency properties against mosquitoes (in words)” value in test [1] (summary statement) is “excellent repellency properties”. In the test on Ant (Lasius niger) (over first hour, wrt untreated surface, 1.0% in general purpose cleaner formulation), this compound displayed a repellency against ants of 72%. In the test on Ant (Lasius niger) (summary statement), the “repellency properties against ants (in words)” value is “excellent repellency properties”. Moreover, in test [2], the minimum inhibitory concentration (MIC) was determined as 312 µg/mL (≈ 1590 µM) and the “activity against Staphylococcus aureus (in words)” value was “excellent activity against Staphylococcus aureus”.
Regarding `CC1CCCC(CCC=O)C1` (stereo not shown) [Compound 4, 3-(3-methylcyclohexyl)propanal], in test [2], the MIC is more than 5000 µg/mL.
The same measure, in the same setting: to `CC(C=O)CC1CCCC(C)C1` (stereo not shown) [Compound 3, 2-methyl-3-(3-methylcyclohexyl)propanal] belongs 5000 µg/mL (≈ 29700 µM).
Regarding `CC(C)C1CCCC(C(C)CC=O)C1` (stereo not shown) [Compound 2, 3-(3-isopropylcyclohexyl)butanal], in test [2], the minimum inhibitory concentration (MIC) was determined as 312 µg/mL (≈ 1590 µM) and the “activity against Staphylococcus aureus (in words)” value is listed as “excellent activity against Staphylococcus aureus”.
